The values that follow are results of earlier work, collected in patent publication US20130195986A1, “New Particles of Tetracyclines and Protecting Agent” (HOVIONE INTER LTD, priority 2010, published 2013).

This series has as its system staining of the teeth and bones and pigmentation of the thyroid gland. The following applies: rats; simultaneous administration of ascorbic acid (vitamin C) with minocycline.

For `O=C1O[C@H]([C@@H](O)CO)C(O)=C1O` [ascorbic acid], the “staining of the teeth and bones and pigmentation of the thyroid gland” value was “prevented staining of the teeth and bones and pigmentation of the thyroid gland”.
